Test results reported in ChEMBL document CHEMBL1201862, “PubChem BioAssay data set” (2004).
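48-hour exposure; five concentrations; linearly interpolated endpoints. GI50 marks 50% less growth.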 Calls of active or inactive are those of the source. No stated cut-off is given here; in the data, active = GI50 up to about 1.1 µM and inactive = higher.

Legend:
Experiment in all cases: NCI tumour cell line growth inhibition, 48 h
UO-31 = system: UO-31
SF-268 = system: SF-268
SNB-19 = system: SNB-19
NCI-H522 = system: NCI-H522
SW-620 = system: SW-620
SK-MEL-5 = system: SK-MEL-5
U-251 = system: U-251
MDA-MB-435 = system: MDA-MB-435
CAKI-1 = system: CAKI-1
MDA-N = system: MDA-N
HT-29 = system: HT-29
Hs-578T = system: Hs-578T
TK-10 = system: TK-10
CCRF-CEM = system: CCRF-CEM
KM12 = system: KM12
RXF 393 = system: RXF 393
SR = system: SR
MCF7 = system: MCF7
UACC-62 = system: UACC-62
DU-145 = system: DU-145
COLO 205 = system: COLO 205
ACHN = system: ACHN
OVCAR-4 = system: OVCAR-4
PC-3 = system: PC-3
SN12C = system: SN12C
SK-MEL-28 = system: SK-MEL-28
SNB-75 = system: SNB-75
M14 = system: M14
HOP-92 = system: HOP-92
HCT-15 = system: HCT-15
NCI-H460 = system: NCI-H460
T47D = system: T47D
NCI-H23 = system: NCI-H23
A549 = system: A549
HCT-116 = system: HCT-116
UACC-257 = system: UACC-257
SF-295 = system: SF-295
K562 = system: K562
OVCAR-8 = system: OVCAR-8
HL-60 = system: HL-60
MOLT-4 = system: MOLT-4
NCI-H226 = system: NCI-H226
NCI/ADR-RES = system: NCI/ADR-RES
IGROV-1 = system: IGROV-1
LOX IMVI = system: LOX IMVI
HCC 2998 = system: HCC 2998
SK-MEL-2 = system: SK-MEL-2
MDA-MB-231 = system: MDA-MB-231
RPMI-8226 = system: RPMI-8226
SF-539 = system: SF-539
OVCAR-3 = system: OVCAR-3
786-0 = system: 786-0
EKVX = system: EKVX
SK-OV-3 = system: SK-OV-3
HOP-62 = system: HOP-62
OVCAR-5 = system: OVCAR-5
A498 = system: A498
Malme-3M = system: Malme-3M

Question: `CSc1ccc(NC(=O)CCl)cc1` was tested. Which GI50 (UO-31) did it give?
Answer: 2.23 µM (inactive)

Question: And the GI50 (SF-268)?
Answer: > 10 µM (inactive)

Question: And the GI50 (SNB-19)?
Answer: 4.86 µM (inactive)

Question: What about the GI50 (NCI-H522) of the same molecule?
Answer: 1.95 µM (inactive)

Question: What about the GI50 (SW-620) of the same molecule?
Answer: 8.32 µM (inactive)

Question: What about the GI50 (SK-MEL-5) of the same molecule?
Answer: 2.08 µM (inactive)

Question: What about the GI50 (U-251) of the same molecule?
Answer: 5.19 µM (inactive)

Question: And the GI50 (MDA-MB-435)?
Answer: 4.03 µM (inactive)

Question: And the GI50 (CAKI-1)?
Answer: 2.97 µM (inactive)

Question: And the GI50 (MDA-N)?
Answer: 4.84 µM (inactive)

Question: And the GI50 (HT-29)?
Answer: 3.65 µM (inactive)

Question: What about the GI50 (Hs-578T) of the same molecule?
Answer: 3.1 µM (inactive)

Question: What about the GI50 (TK-10) of the same molecule?
Answer: > 10 µM (inactive)

Question: And the GI50 (CCRF-CEM)?
Answer: 2.43 µM (inactive)

Question: What about the GI50 (KM12) of the same molecule?
Answer: > 10 µM (inactive)

Question: And the GI50 (RXF 393)?
Answer: 3.17 µM (inactive)

Question: And the GI50 (SR)?
Answer: 2.7 µM (inactive)

Question: And the GI50 (MCF7)?
Answer: 3.51 µM (inactive)

Question: And the GI50 (UACC-62)?
Answer: 1.85 µM (inactive)

Question: What about the GI50 (DU-145) of the same molecule?
Answer: > 10 µM (inactive)

Question: And the GI50 (COLO 205)?
Answer: 3.02 µM (inactive)

Question: And the GI50 (ACHN)?
Answer: > 10 µM (inactive)

Question: What about the GI50 (OVCAR-4) of the same molecule?
Answer: > 10 µM (inactive)

Question: What about the GI50 (PC-3) of the same molecule?
Answer: 3.9 µM (inactive)

Question: And the GI50 (SN12C)?
Answer: 6.82 µM (inactive)

Question: What about the GI50 (SK-MEL-28) of the same molecule?
Answer: 5.7 µM (inactive)

Question: And the GI50 (SNB-75)?
Answer: 2.53 µM (inactive)

Question: What about the GI50 (M14) of the same molecule?
Answer: 1.92 µM (inactive)

Question: What about the GI50 (HOP-92) of the same molecule?
Answer: 2.63 µM (inactive)

Question: And the GI50 (HCT-15)?
Answer: 5.97 µM

Question: What about the GI50 (NCI-H460) of the same molecule?
Answer: 2.41 µM (inactive)

Question: And the GI50 (T47D)?
Answer: > 10 µM (inactive)

Question: What about the GI50 (NCI-H23) of the same molecule?
Answer: 9.59 µM (inactive)

Question: What about the GI50 (A549) of the same molecule?
Answer: 2.44 µM (inactive)

Question: And the GI50 (HCT-116)?
Answer: 3.03 µM (inactive)

Question: What about the GI50 (UACC-257) of the same molecule?
Answer: 6.18 µM (inactive)

Question: What about the GI50 (SF-295) of the same molecule?
Answer: 2.58 µM (inactive)

Question: What about the GI50 (K562) of the same molecule?
Answer: 3.13 µM (inactive)

Question: And the GI50 (OVCAR-8)?
Answer: 3.51 µM (inactive)

Question: And the GI50 (HL-60)?
Answer: 3.33 µM (inactive)

Question: What about the GI50 (MOLT-4) of the same molecule?
Answer: 3.4 µM (inactive)

Question: And the GI50 (NCI-H226)?
Answer: > 10 µM (inactive)

Question: And the GI50 (NCI/ADR-RES)?
Answer: 3.24 µM (inactive)

Question: What about the GI50 (IGROV-1) of the same molecule?
Answer: 4.73 µM (inactive)

Question: What about the GI50 (LOX IMVI) of the same molecule?
Answer: 5.15 µM (inactive)

Question: What about the GI50 (HCC 2998) of the same molecule?
Answer: 2.18 µM (inactive)

Question: And the GI50 (SK-MEL-2)?
Answer: 1.81 µM (inactive)

Question: What about the GI50 (MDA-MB-231) of the same molecule?
Answer: 7.31 µM (inactive)

Question: What about the GI50 (RPMI-8226) of the same molecule?
Answer: 3.32 µM (inactive)

Question: And the GI50 (SF-539)?
Answer: 3.95 µM (inactive)

Question: What about the GI50 (OVCAR-3) of the same molecule?
Answer: 3.75 µM (inactive)

Question: What about the GI50 (786-0) of the same molecule?
Answer: 6.38 µM (inactive)

Question: What about the GI50 (EKVX) of the same molecule?
Answer: > 10 µM (inactive)

Question: And the GI50 (SK-OV-3)?
Answer: > 10 µM (inactive)

Question: What about the GI50 (HOP-62) of the same molecule?
Answer: 3.52 µM (inactive)

Question: And the GI50 (OVCAR-5)?
Answer: 3.33 µM (inactive)

Question: With `O=C(NC/C(Cl)=C/Cl)Nc1cccc2c1CCCC2` as the molecule, how does the GI50 (UO-31) read?
Answer: > 100 µM (inactive)

Question: What about the GI50 (SF-268) of the same molecule?
Answer: > 100 µM (inactive)

Question: And the GI50 (SNB-19)?
Answer: > 100 µM (inactive)

Question: And the GI50 (NCI-H522)?
Answer: > 100 µM (inactive)

Question: What about the GI50 (SW-620) of the same molecule?
Answer: > 100 µM (inactive)

Question: What about the GI50 (SK-MEL-5) of the same molecule?
Answer: > 100 µM (inactive)

Question: What about the GI50 (U-251) of the same molecule?
Answer: > 100 µM (inactive)

Question: What about the GI50 (MDA-MB-435) of the same molecule?
Answer: > 100 µM (inactive)

Question: And the GI50 (CAKI-1)?
Answer: 86.9 µM (inactive)

Question: What about the GI50 (MDA-N) of the same molecule?
Answer: > 100 µM (inactive)

Question: What about the GI50 (HT-29) of the same molecule?
Answer: 38.5 µM (inactive)

Question: And the GI50 (Hs-578T)?
Answer: > 100 µM (inactive)

Question: And the GI50 (TK-10)?
Answer: 46.7 µM (inactive)

Question: What about the GI50 (KM12) of the same molecule?
Answer: > 100 µM (inactive)

Question: What about the GI50 (RXF 393) of the same molecule?
Answer: > 100 µM (inactive)

Question: And the GI50 (SR)?
Answer: 35.9 µM (inactive)

Question: What about the GI50 (MCF7) of the same molecule?
Answer: > 100 µM (inactive)

Question: And the GI50 (UACC-62)?
Answer: > 100 µM (inactive)

Question: What about the GI50 (DU-145) of the same molecule?
Answer: > 100 µM (inactive)

Question: And the GI50 (A498)?
Answer: 65.8 µM (inactive)

Question: What about the GI50 (COLO 205) of the same molecule?
Answer: > 100 µM (inactive)

Question: What about the GI50 (ACHN) of the same molecule?
Answer: > 100 µM (inactive)

Question: What about the GI50 (OVCAR-4) of the same molecule?
Answer: > 100 µM (inactive)

Question: What about the GI50 (PC-3) of the same molecule?
Answer: 74.5 µM (inactive)

Question: And the GI50 (SN12C)?
Answer: > 100 µM (inactive)

Question: What about the GI50 (SK-MEL-28) of the same molecule?
Answer: > 100 µM (inactive)

Question: What about the GI50 (SNB-75) of the same molecule?
Answer: > 100 µM (inactive)

Question: And the GI50 (M14)?
Answer: > 100 µM (inactive)

Question: And the GI50 (HOP-92)?
Answer: 55.7 µM (inactive)

Question: What about the GI50 (HCT-15) of the same molecule?
Answer: > 100 µM

Question: What about the GI50 (NCI-H460) of the same molecule?
Answer: 83.8 µM (inactive)

Question: And the GI50 (T47D)?
Answer: 97.9 µM (inactive)

Question: And the GI50 (NCI-H23)?
Answer: > 100 µM (inactive)

Question: What about the GI50 (A549) of the same molecule?
Answer: > 100 µM (inactive)

Question: What about the GI50 (HCT-116) of the same molecule?
Answer: > 100 µM (inactive)

Question: And the GI50 (UACC-257)?
Answer: 58.9 µM (inactive)

Question: And the GI50 (SF-295)?
Answer: > 100 µM (inactive)

Question: And the GI50 (OVCAR-8)?
Answer: > 100 µM (inactive)

Question: And the GI50 (MOLT-4)?
Answer: 29.5 µM (inactive)

Question: And the GI50 (Malme-3M)?
Answer: > 100 µM (inactive)

Question: What about the GI50 (NCI-H226) of the same molecule?
Answer: > 100 µM (inactive)

Question: And the GI50 (NCI/ADR-RES)?
Answer: > 100 µM (inactive)

Question: And the GI50 (IGROV-1)?
Answer: > 100 µM (inactive)

Question: And the GI50 (LOX IMVI)?
Answer: > 100 µM (inactive)

Question: And the GI50 (HCC 2998)?
Answer: > 100 µM (inactive)

Question: And the GI50 (SK-MEL-2)?
Answer: > 100 µM (inactive)

Question: What about the GI50 (MDA-MB-231) of the same molecule?
Answer: > 100 µM (inactive)

Question: What about the GI50 (RPMI-8226) of the same molecule?
Answer: 49.8 µM (inactive)

Question: And the GI50 (SF-539)?
Answer: > 100 µM (inactive)

Question: What about the GI50 (OVCAR-3) of the same molecule?
Answer: > 100 µM (inactive)

Question: And the GI50 (786-0)?
Answer: 89.3 µM (inactive)

Question: What about the GI50 (EKVX) of the same molecule?
Answer: 82.8 µM (inactive)

Question: And the GI50 (SK-OV-3)?
Answer: > 100 µM (inactive)

Question: And the GI50 (HOP-62)?
Answer: > 100 µM (inactive)

Question: What about the GI50 (OVCAR-5) of the same molecule?
Answer: > 100 µM (inactive)
